Measurements reported in ChEMBL document CHEMBL5316291 (J Med Chem, 2023).
pIC50: −log10 of the molar value. Calls of active or inactive are those of the source. No cut-off for these calls is given here.

Assays:
[1] = target: T1, Protein mono-ADP-ribosyltransferase TIPARP (Homo sapiens) (UniProt Q7Z3E1); assay: Inhibition of human recombinant N-terminal FLAG tagged PARP7 (400 to 657 end residues) at 100 nM incubated for 1 hr by ELISA assay relative to control
T1 sequence (whole entry): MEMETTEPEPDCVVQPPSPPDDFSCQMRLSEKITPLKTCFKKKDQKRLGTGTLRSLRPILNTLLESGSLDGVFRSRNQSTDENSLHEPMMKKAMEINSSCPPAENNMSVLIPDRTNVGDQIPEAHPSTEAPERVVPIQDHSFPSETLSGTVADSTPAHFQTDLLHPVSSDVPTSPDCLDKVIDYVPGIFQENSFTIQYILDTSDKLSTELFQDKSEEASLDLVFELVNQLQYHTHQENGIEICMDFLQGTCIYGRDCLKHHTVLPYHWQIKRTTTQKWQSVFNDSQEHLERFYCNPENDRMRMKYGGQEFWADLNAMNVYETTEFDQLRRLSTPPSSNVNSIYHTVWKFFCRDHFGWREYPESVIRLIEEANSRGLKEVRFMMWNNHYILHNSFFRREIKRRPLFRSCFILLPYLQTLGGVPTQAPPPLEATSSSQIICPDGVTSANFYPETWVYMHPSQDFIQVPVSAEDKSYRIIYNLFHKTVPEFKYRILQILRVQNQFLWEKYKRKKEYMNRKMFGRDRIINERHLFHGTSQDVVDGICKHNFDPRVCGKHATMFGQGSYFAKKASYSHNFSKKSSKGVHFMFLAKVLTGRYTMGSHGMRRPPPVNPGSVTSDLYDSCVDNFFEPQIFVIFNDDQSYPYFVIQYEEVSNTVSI

[2] = target: T2, Protein mono-ADP-ribosyltransferase TIPARP (Homo sapiens, UniProt Q7Z3E1); assay: Inhibition of human recombinant N-terminal FLAG-tagged PARP7 (400 to 657 end residues) incubated for 1 hr by ELISA assay
T2 sequence (Q7Z3E1 whole entry): T1 sequence (whole entry)

[3] = target: T3, Protein mono-ADP-ribosyltransferase PARP12 (Homo sapiens, UniProt Q9H0J9); assay: Inhibition of human recombinant N-terminal GST-tagged PARP12 (500 to 701 end residues) expressed in baculovirus infected Sf9 cells expression system incubated for 1 hr by ELISA assay
T3 sequence (Q9H0J9 whole entry): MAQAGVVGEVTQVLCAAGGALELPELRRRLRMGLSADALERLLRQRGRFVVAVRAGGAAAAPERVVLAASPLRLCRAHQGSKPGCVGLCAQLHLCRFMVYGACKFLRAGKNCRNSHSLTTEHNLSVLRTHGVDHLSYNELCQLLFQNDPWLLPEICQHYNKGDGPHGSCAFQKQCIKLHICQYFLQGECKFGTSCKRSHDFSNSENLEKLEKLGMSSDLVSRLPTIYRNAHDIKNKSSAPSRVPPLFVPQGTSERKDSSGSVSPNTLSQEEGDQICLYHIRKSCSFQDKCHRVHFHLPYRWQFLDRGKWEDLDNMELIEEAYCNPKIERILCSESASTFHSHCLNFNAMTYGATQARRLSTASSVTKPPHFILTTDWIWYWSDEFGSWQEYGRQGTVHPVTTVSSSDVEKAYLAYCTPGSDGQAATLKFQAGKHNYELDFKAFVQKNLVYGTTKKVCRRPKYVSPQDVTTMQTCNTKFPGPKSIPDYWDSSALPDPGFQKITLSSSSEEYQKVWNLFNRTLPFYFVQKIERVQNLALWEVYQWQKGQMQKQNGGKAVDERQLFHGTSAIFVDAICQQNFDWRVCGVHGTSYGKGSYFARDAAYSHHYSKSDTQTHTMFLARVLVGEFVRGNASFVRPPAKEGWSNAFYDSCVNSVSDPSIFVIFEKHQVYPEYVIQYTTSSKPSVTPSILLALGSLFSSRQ

[4] = target: Protein mono-ADP-ribosyltransferase PARP14 (Homo sapiens, UniProt Q460N5); assay: Inhibition of human recombinant N-terminal 6his-tagged / GST-tagged PARP14 (1470 to 1801 end residues) expressed in baculovirus infected Sf9 cells expression system incubated for 1 hr by ELISA assay
Sequence of Protein mono-ADP-ribosyltransferase PARP14 (Q460N5 whole entry): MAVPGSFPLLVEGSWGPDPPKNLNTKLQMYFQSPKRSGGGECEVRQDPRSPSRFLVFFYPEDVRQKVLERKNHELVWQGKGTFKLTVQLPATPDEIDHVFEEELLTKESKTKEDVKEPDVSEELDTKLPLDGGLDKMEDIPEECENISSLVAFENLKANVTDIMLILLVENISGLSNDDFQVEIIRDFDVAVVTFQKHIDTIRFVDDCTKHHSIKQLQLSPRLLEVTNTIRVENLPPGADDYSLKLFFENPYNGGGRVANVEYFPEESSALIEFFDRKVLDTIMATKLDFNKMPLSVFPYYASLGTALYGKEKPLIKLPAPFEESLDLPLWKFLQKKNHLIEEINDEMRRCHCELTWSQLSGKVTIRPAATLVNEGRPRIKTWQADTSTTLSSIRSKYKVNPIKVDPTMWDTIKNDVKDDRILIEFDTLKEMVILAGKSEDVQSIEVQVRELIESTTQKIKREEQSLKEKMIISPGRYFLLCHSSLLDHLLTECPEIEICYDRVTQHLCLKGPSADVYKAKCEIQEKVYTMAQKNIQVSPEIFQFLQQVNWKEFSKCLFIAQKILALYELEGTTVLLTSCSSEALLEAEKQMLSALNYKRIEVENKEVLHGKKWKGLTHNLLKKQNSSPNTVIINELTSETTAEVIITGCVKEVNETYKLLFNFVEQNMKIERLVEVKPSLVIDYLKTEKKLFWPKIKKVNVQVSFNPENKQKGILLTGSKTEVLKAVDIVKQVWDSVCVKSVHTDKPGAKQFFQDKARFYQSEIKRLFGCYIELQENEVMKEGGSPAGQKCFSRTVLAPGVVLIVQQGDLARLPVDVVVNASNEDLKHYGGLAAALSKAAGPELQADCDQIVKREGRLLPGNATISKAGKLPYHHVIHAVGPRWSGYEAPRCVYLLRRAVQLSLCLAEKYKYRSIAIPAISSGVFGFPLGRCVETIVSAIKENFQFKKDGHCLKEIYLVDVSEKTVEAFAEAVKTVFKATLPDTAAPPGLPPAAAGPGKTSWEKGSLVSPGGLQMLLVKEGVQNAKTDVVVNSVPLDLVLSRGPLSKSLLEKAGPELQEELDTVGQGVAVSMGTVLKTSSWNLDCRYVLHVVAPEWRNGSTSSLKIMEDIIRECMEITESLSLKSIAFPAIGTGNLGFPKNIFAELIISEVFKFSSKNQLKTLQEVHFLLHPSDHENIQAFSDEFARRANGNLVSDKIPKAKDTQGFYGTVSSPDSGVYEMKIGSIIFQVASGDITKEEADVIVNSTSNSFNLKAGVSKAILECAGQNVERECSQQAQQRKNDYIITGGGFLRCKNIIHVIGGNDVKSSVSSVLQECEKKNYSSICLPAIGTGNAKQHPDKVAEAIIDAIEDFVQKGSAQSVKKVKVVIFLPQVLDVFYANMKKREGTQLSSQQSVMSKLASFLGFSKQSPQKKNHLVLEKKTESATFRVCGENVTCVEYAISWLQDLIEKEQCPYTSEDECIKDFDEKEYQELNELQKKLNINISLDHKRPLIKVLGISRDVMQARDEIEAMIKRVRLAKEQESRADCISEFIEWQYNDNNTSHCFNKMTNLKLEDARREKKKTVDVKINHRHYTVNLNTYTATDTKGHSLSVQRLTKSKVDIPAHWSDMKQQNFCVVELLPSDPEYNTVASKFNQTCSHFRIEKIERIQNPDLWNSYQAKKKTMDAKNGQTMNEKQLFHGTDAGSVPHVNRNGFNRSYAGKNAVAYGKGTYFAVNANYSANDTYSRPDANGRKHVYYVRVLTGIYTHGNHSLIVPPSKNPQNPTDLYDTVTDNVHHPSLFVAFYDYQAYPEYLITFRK

[5] = target: T4, Protein mono-ADP-ribosyltransferase TIPARP (Mus musculus) (UniProt Q8C1B2); assay: Inhibition of PARP7 in mouse CT26 cells assessed as increase in STAT1 phosphorylation incubated for 6 hrs in presence of DMXAA by Western blotting analysis; type: cell-based; settings: dose 0.44-4 µM
T4 sequence (whole entry): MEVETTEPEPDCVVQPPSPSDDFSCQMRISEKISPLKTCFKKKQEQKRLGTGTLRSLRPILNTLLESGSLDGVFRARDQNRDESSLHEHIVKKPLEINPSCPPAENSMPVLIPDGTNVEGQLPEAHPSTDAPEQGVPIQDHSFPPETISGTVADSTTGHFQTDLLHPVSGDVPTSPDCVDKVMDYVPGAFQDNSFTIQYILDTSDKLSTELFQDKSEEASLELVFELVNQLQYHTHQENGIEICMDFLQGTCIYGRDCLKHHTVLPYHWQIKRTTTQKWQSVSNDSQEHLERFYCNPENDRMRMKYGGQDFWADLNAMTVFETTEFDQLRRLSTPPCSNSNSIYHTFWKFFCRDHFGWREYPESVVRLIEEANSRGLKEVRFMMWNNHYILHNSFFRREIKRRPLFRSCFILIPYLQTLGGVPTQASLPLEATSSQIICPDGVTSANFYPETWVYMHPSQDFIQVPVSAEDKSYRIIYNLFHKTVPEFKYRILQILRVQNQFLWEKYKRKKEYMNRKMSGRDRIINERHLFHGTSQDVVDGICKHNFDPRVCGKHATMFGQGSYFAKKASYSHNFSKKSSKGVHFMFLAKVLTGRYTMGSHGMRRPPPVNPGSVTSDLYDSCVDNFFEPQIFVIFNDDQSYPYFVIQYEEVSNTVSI

[6] = Toxicity in BALB/c mouse implanted with mouse CT26 cells assessed as change in body weight at 1000 mg/kg, po measured upto 7 days; type: organism-based; settings: in vivo, 168 h, time < 7 day
CT26 [7] = assay: Antitumor activity against mouse CT26 cells implanted in po dosed BALB/c mouse assessed as increase in PARP7 levels at 50 to 100 mg/kg measured after 14 days by RT-qPCR analysis; type: functional, organism-based; settings: dose 50-100 mg/kg, time 14.0 day
CT26 [8] = assay: Antitumor activity against mouse CT26 cells implanted in immunodeficient BALB/c mouse at 100 mg/kg, po bid measured for 10 days; type: functional, organism-based; settings: time 10.0 day
CT26 [9] = assay: cells; settings: Mus musculus, CT26, 144 h

C[C@@H](CN1CC(C(=O)N2CCN(c3ncc(C(F)(F)F)cn3)CC2)C1)Nc1cn[nH]c(=O)c1C(F)(F)F
inhibition [1]: 70.5% | pIC50 [2]: 8.12 | pIC50 [3]: 6.34 | pIC50 [4]: 5.66 | inhibition [5]: Dose-Dependent Effect | Activity [6]: Non-Toxic | Activity (CT26 [7]): inactive | Activity (CT26 [8]): inactive | pIC50 (CT26 [9]): 4.89
